The numbers were not newly measured in patent US20070160647A1, “Materials for medical implants and occlusive devices” (Clarity Corporation, priority 2004, published 2007), which cites them from elsewhere.

For `Oc1cc(Cl)ccc1Oc1ccc(Cl)cc1Cl` [triclosan], the “solubility in DMSO and alcohols” value is given as “highly soluble”; the solubility in water result is reported as “insoluble”.
